{"source": "paper PMC7224104", "about": "(Molecular Diversity, 2020)", "data": [{"target": "T1, porcine liver COMT (Sus scrofa, UniProt Q99028)", "T1 sequence (Q99028 1-186)": "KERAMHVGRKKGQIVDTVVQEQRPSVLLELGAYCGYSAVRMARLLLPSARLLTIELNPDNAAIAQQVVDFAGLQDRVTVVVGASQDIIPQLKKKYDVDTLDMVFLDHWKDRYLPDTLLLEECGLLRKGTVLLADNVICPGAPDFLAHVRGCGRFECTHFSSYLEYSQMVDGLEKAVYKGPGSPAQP", "test": "biochemical", "units": {"IC50": "µM"}, "values": [{"smiles": "Cc1c(O)c(=O)ccn1-c1ccccc1", "note": "[Compound 1, 3-Hydroxy-2-methyl-1-phenylpyridin-4-one]", "IC50": "10.9 ± 1.06"}, {"smiles": "Cc1c(O)c(=O)ccn1Cc1ccccc1", "note": "[Compound 2, 1-Benzyl-3-hydroxy-2-methylpyridin-4-one]", "IC50": "4.55 ± 0.545"}, {"smiles": "Cc1c(O)c(=O)ccn1CCc1ccccc1", "note": "[Compound 3, 3-Hydroxy-2-methyl-1-(2-phenylethyl)pyridin-4-one]", "IC50": "15 ± 2.1"}, {"smiles": "Cc1c(O)c(=O)ccn1CCCc1ccccc1", "note": "[Compound 4, 3-Hydroxy-2-methyl-1-(3-phenylpropyl)pyridin-4-one]", "IC50": "18.4 ± 0.974"}, {"smiles": "Cc1c(O)c(=O)ccn1CCCCc1ccccc1", "note": "[Compound 5, 3-Hydroxy-2-methyl-1-(4-phenylbutyl)pyridin-4-one]", "IC50": "9.05 ± 1.25"}, {"smiles": "Cc1c(O)c(=O)ccn1C1CCCCC1", "note": "[Compound 6, 1-Cyclohexyl-3-hydroxy-2-methylpyridin-4-one]", "IC50": "12.2 ± 3.06"}, {"smiles": "Cc1c(O)c(=O)ccn1C1CCCC1", "note": "[Compound 7, 1-Cyclopentyl-3-hydroxy-2-methylpyridin-4-one]", "IC50": "19.8 ± 5.86"}, {"smiles": "Cc1c(O)c(=O)ccn1-c1cccc(Cl)c1", "note": "[Compound 8, 1-(3-Chlorophenyl)-3-hydroxy-2-methylpyridin-4-one]", "IC50": "11.2 ± 1.01"}, {"smiles": "Cc1c(O)c(=O)ccn1-c1ccc(Cl)cc1", "note": "[Compound 9, 1-(4-Chlorophenyl)-3-hydroxy-2-methylpyridin-4-one]", "IC50": "9.31 ± 2.94"}, {"smiles": "Cc1ccc(Cn2ccc(=O)c(O)c2C)cc1", "note": "[Compound 10, 3-Hydroxy-2-methyl-1-(4-methylbenzyl)pyridin-4-one]", "IC50": "5.76 ± 0.664"}, {"smiles": "Cc1ccc(C(=O)c2cc(O)c(O)c([N+](=O)[O-])c2)cc1", "note": "[Tolcapone, reference compound]", "IC50": 0.0068}]}]}
